Data set [1] can be described thus: Apremilast in plasma by chiral LC/MS/MS, non-compartmental PK. Type of data set: in vivo, human. The protocol:
(§1) Urine was collected pre-dose, 0-4, 4-8, 8-12, 12-24 and every 24 h thereafter up to 216h (9 days) following dose administration and was stabilized with one volume of pH 1.5 Sorensen's citrate buffer (25-mM sodium citrate buffer adjusted to pH 1.5). Individual faecal samples were collected pre-dose and for up to 9 days following dose administration, and homogenized using approximately three volumes by weight of pH 1.5 Sorensen's citrate buffer. Blood (two 5-mL samples for plasma radioactivity counting, a 3-mL sample for whole blood radioactivity counting, a 2-mL sample for apremilast analysis and a 10-mL sample for metabolite profiling) was collected into heparinized tubes at pre-dose, 0.5, 1, 1.5, 2, 2.5, 3, 4, 6, 8, 12, 16, 24, 36, 48, 72, 96, 120, 144 and 168 h following dose administration. Blood samples collected for radioactivity counting were stored at or below -20°C until analysed. Plasma was harvested by centrifugation from all other blood samples. The plasma samples for apremilast analysis and metabolite profiling were mixed with an equal volume of pH 1.5 Sorensen's citrate buffer containing 20-μM amastatin. All urine, faecal homogenates and plasma samples were stored at or below -20°C until analysed.
Plasma concentrations of apremilast were determined using a Chiral liquid chromatography with tandem mass spectrometry (LC/MS/MS) assay validated for concentrations between 1.00 and 1000ng/mL, with quality control (QC) samples prepared at 3.00, 50.0 and 750 ng/mL. Apremilast and (3S-cis)-(+)-tetrahydro-3,7a-diphenylpyrrolo[2, 1-b] oxazol-5(6H)-one (internal standard; IS) were extracted from 50 μL of plasma (stabilized with 50-μL Sorenson's citrate buffer) using liquid-liquid extraction with methyl tertiary butyl ether. The aqueous layer was frozen and the solvent layer was transferred to a new tube. The solvent was evaporated, the samples were reconstituted and injected for LC/MS/MS analysis using a Chiral AGP (150×4.0mm, 5 μm; Chrom Tech, Inc., Apple Valley, MN) analytical column. Positive ions were measured in the multiple reaction monitoring (MRM) mode using a Sciex API-4000 tandem mass spectrometer equipped with a Turbo IonSpray source with precursor→product ion pairs of 461.0→177.9 for apremilast and 280.1→160.3 for IS. For the QC samples, the accuracy ranged from 87.5% to 106.7%.
Pharmacokinetic data were generated by non-compartmental analysis of plasma or whole blood versus time profiles using WinNonlin (version 4.1, Enterprise Edition). For individual subjects, the peak concentration (Cmax), time to Cmax (Tmax), area under the concentration versus time curve from time zero to the last quantifiable concentration (AUC0-t), area under the concentration versus time curve from time zero to infinity (AUC0-∞ and the apparent terminal elimination half-life (t½) were determined. AUC0-t) and AUC0-∞ were calculated using the linear trapezoidal rule. AUC0-∞ was calculated as the sum of […], where Clast, is the last observed quantifiable concentration.

The nature of data set [2]: Total radioactivity pharmacokinetics in plasma and whole blood. Type of data set: in vivo, human. To be noted: single oral 20-mg dose. The protocol:
(§2) Each subject was administered a single oral suspension of 20 mg (100 μCi) of [^14C] apremilast in distilled water (240mL total volume). Subjects were fasted for 8 h prior to and 4 h following dose administration. The residual radioactivity in the dosing vials was determined and accounted for approximately 0.3% of the total radioactivity. Dose administration, sample collection, sample processing and determination of total radioactivity were conducted at MDS Pharma Services (Lincoln, NE). Determination of apremilast in plasma, metabolite profiling and metabolite characterization were performed at XenoBiotic Laboratories, Inc. (Plainsboro, NJ).
as §1, with “Individual faecal samples were collected pre-dose and for up to 9 days following dose administration, and homogenized using approximately three volumes by weight of pH 1.5 Sorensen's citrate buffer.” left out, “Plasma was harvested by centrifugation from all other blood samples. The plasma samples for apremilast analysis and metabolite profiling were mixed with an equal volume of pH 1.5 Sorensen's citrate buffer containing 20-μM amastatin.” left out
All radioactivity determinations were performed using a Tri-Carb model 1600TR liquid scintillation counter (PerkinElmer, Wellesley, MA). For plasma and urine analysis, duplicate samples of a known volume were mixed with Ultima Gold XR scintillation cocktail and directly analysed by liquid scintillation counting. […] Using these criteria, the lower limit of quantification in plasma, blood, urine and faeces were 2.07 ng [^14C]apremilast equivalent/mL (ngEq/mL), 2.61 ngEq/g, 1.89 ngEq/mL and 2.52 ngEq/g, respectively. […]

The conditions of data set [3]: cited from earlier work.
Another data set has as its system CYP3A4. Set-up: method as in Wu et al. 2006. To be noted: co-administration with ketoconazole, healthy subjects; ref Wu et al. 2006; cited from earlier work.
A short description of data set [4]: Mass balance: excretion of radioactivity in urine and faeces after a single oral [14C]apremilast dose. It is filed as in vivo, human. As for the experimental part:
This was an open-label, inpatient, single-dose study conducted with six non-smoking healthy male volunteers, aged between 19 and 55 years, with body mass index between 19 and 29kg/m^2. Before initiation of the study, the protocol and consent form were reviewed and approved by the institutional review board. All study participants gave written informed consent before the screening process was initiated. This study was conducted in full accordance with the Declaration of Helsinki and Good Clinical (GCP) as required by and described in 21 Code of Federal Regulations.
as §2
as §1, with “Individual faecal samples were collected pre-dose and for up to 9 days following dose administration, and homogenized using approximately three volumes by weight of pH 1.5 Sorensen's citrate buffer.” left out, “Plasma was harvested by centrifugation from all other blood samples. The plasma samples for apremilast analysis and metabolite profiling were mixed with an equal volume of pH 1.5 Sorensen's citrate buffer containing 20-μM amastatin.” left out
All radioactivity determinations were performed using a Tri-Carb model 1600TR liquid scintillation counter (PerkinElmer, Wellesley, MA). For plasma and urine analysis, duplicate samples of a known volume were mixed with Ultima Gold XR scintillation cocktail and directly analysed by liquid scintillation counting. […] Using these criteria, the lower limit of quantification in plasma, blood, urine and faeces were 2.07 ng [^14C]apremilast equivalent/mL (ngEq/mL), 2.61 ngEq/g, 1.89 ngEq/mL and 2.52 ngEq/g, respectively.
The amount of total radioactivity (ngEq) in urine and faeces was determined by multiplying the volume or weight of the samples by the radioactivity concentration. […] For data values below the limit of quantification, a value of zero was assigned for calculations of means.

[5] abbreviates: patients, 20 mg daily for 29 days, capsules, ref Gottlieb et al. 2008.

Data on 1 compound can be found in publication PMC3231940, “Disposition, metabolism and mass balance of [^14C]apremilast following oral administration” (Xenobiotica; the Fate of Foreign Compounds in Biological …, 2011).

Values joined by “and” are separate entries in the source; they are usually repeats but may differ in a detail not shown here. Equal values may be shown once. Read-outs that look alike come from different tables or passages of the source.

Broadly, the Tmax is the time from dosing to the highest level. Usually Cmax stands for the peak of the concentration-time curve. For `CCOc1cc([C@@H](CS(C)(=O)=O)N2C(=O)c3cccc(NC(C)=O)c3C2=O)ccc1OC` [Apremilast, (+)-N-[2-[(lS)-1-(3-ethoxy-4-methoxyphenyl)-2-(methylsulfonyl)ethyl]-1,3-dioxo-2,3-dihydro-lH-isoindol-4-yl]acetamide], the “Plasma t½” value in data set [1] (chiral LC/MS/MS assay, single oral 20-mg dose, mean ± SD) was determined as 6.8 ± 2.6 h. For the same compound, the half-life was around 7 h in data set [1] (male, human, plasma, po, 20 mg, chiral LC/MS/MS assay, single oral 20-mg dose, mean ± SD, read-out: Plasma t½ (converted)) and 8.2 h in data set [3] (patients with severe plaque-type psoriasis, multiple daily doses, ref Gottelieb et al. 2008). The AUC in data set [1] (male, human, plasma, po, 20 mg, single oral 20-mg dose, read-out: AUC determined via LC/MS) is 1910 ± 339 ng·h/mL; in data set [1] (male, human, plasma, po, 20 mg, single oral dose 20 mg, 100 uCi, read-out: Mean AUC0 in plasma), 1970 ng·h/mL. For the same compound, in data set [1] (male, human, plasma, chiral LC/MS/MS assay, single oral 20-mg dose, mean ± SD, read-out: Plasma AUC0-t), the AUC(0-t) is 1910 ± 339 ng·h/mL. The AUC(0-inf) in data set [1] (male, human, plasma, chiral LC/MS/MS assay, single oral 20-mg dose, mean ± SD, read-out: Plasma AUC0-∞) turned out to be 1970 ± 343 ng·h/mL. In addition, the time to peak (Tmax) in data set [1] (male, human, plasma, chiral LC/MS/MS assay, single oral 20-mg dose, median and range) is below 2 h. Also, the Cmax is 333 ng/mL in data set [1] (male, human, plasma, single oral dose 20 mg, 100 uCi) and 207 ng/mL in data set [3] (setting [5]). Further, the “Share of AUC0-∞ for radioactivity in plasma between 0 and 96 h” value in data set [2] was “approximately 90%”. Besides, the “Share of AUC0-∞ for radioactivity in plasma from AUC96-∞” value in data set [2] is on record as 10%. In addition, the “Plasma total radioactivity Tmax” value in data set [2] (median (min-max), listed as [^14C]apremilast) is on record as below 2 h. For the same compound, the AUC0-24 in data set [3] (setting [5]) was 1799 ng·h/mL. The “Increase in apremilast AUC” value in the data set with CYP3A4 was 36%. The “Increase in mean apremilast Cmax” value in the data set on CYP3A4 is listed as 5%. Also, the “Amount of drug absorbed” value is recorded as “at least 58%” in data set [4] (based on urinary radioactivity) and above 80% in data set [4] (if faecal metabolites are included in the calculation). In addition, the “Faecal excretion of radioactivity, mean (percentage of dose)” value in data set [4] (collection over 216 h, listed as [^14C]apremilast) is 39% and 39.2%. The “Radioactivity recovered within the first 4 days (96 h)” value in data set [4] (urine plus faeces, 96 h after dose, listed as [^14C]apremilast) was > 90% and > 92%.
